Results as given in PubChem BioAssay (NCI).
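Interpolation was linear, between the two tested concentrations surrounding the appropriate level; five concentrations were tested over 48 hours in 96-well plates. GI50: concentration for 50% inhibition of growth. TGI: total growth inhibition.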

Tests used:
Test in all cases: NCI tumour cell line growth inhibition, 48 h
NCI/ADR-RES ovarian = tested on: NCI/ADR-RES ovarian
K-562 leukemia = tested on: K-562 leukemia
EKVX NSCLC = tested on: EKVX NSCLC
NCI-H226 lung = tested on: NCI-H226 lung
NCI-H522 lung = tested on: NCI-H522 lung
HOP-62 NSCLC = tested on: HOP-62 NSCLC
SK-OV-3 ovarian = tested on: SK-OV-3 ovarian
NCI-H23 lung = tested on: NCI-H23 lung
KM12 colon = tested on: KM12 colon
NCI-H460 lung = tested on: NCI-H460 lung
COLO 205 colon = tested on: COLO 205 colon
MDA-MB-435 = tested on: MDA-MB-435
SW-620 colon = tested on: SW-620 colon
SN12C renal = tested on: SN12C renal
SK-MEL-5 melanoma = tested on: SK-MEL-5 melanoma
A498 renal = tested on: A498 renal
SF-295 CNS = tested on: SF-295 CNS
UACC-257 melanoma = tested on: UACC-257 melanoma
MOLT-4 leukemia = tested on: MOLT-4 leukemia
HCC-2998 colon = tested on: HCC-2998 colon
BT-549 breast = tested on: BT-549 breast
T-47D breast = tested on: T-47D breast
CCRF-CEM leukemia = tested on: CCRF-CEM leukemia
MDA-MB-231 breast = tested on: MDA-MB-231 breast
SF-539 CNS = tested on: SF-539 CNS
OVCAR-3 ovarian = tested on: OVCAR-3 ovarian
SF-268 CNS = tested on: SF-268 CNS
OVCAR-8 ovarian = tested on: OVCAR-8 ovarian
HT29 colon = tested on: HT29 colon
M14 melanoma = tested on: M14 melanoma
HCT-116 colon = tested on: HCT-116 colon
DU-145 prostate = tested on: DU-145 prostate
IGROV1 ovarian = tested on: IGROV1 ovarian
RXF 393 renal = tested on: RXF 393 renal
LOX IMVI melanoma = tested on: LOX IMVI melanoma
HL-60(TB) leukemia = tested on: HL-60(TB) leukemia
HOP-92 NSCLC = tested on: HOP-92 NSCLC
UO-31 renal = tested on: UO-31 renal
CAKI-1 renal = tested on: CAKI-1 renal
MCF7 breast = tested on: MCF7 breast
HCT-15 colon = tested on: HCT-15 colon
SK-MEL-2 melanoma = tested on: SK-MEL-2 melanoma
PC-3 prostate = tested on: PC-3 prostate
A549 NSCLC = tested on: A549 NSCLC
SNB-19 CNS = tested on: SNB-19 CNS
SNB-75 CNS = tested on: SNB-75 CNS
U251 CNS = tested on: U251 CNS
786-0 renal = tested on: 786-0 renal
TK-10 renal = tested on: TK-10 renal
RPMI-8226 leukemia = tested on: RPMI-8226 leukemia
ACHN renal = tested on: ACHN renal
SK-MEL-28 melanoma = tested on: SK-MEL-28 melanoma
OVCAR-4 ovarian = tested on: OVCAR-4 ovarian
MALME-3M melanoma = tested on: MALME-3M melanoma
UACC-62 melanoma = tested on: UACC-62 melanoma
SR leukemia = tested on: SR leukemia
OVCAR-5 ovarian = tested on: OVCAR-5 ovarian
HS 578T breast = tested on: HS 578T breast

## O=c1nc(Nc2ccc([N+](=O)[O-])cc2O)sc2ccccc12
NCI/ADR-RES ovarian
  GI50: 0.532 µM
  TGI: 4.47 µM
K-562 leukemia
  GI50: 0.557 µM
  TGI: > 16.7 µM
EKVX NSCLC
  GI50: 4.05 µM
  TGI: > 16.7 µM
NCI-H226 lung
  GI50: 0.783 µM
  TGI: > 16.7 µM
NCI-H522 lung
  GI50: 0.786 µM
  TGI: 10.4 µM
HOP-62 NSCLC
  GI50: 0.917 µM
  TGI: > 16.7 µM
SK-OV-3 ovarian
  GI50: 1.31 µM
  TGI: > 16.7 µM
NCI-H23 lung
  GI50: 1.1 µM
  TGI: > 16.7 µM
KM12 colon
  GI50: 1.04 µM
  TGI: > 16.7 µM
NCI-H460 lung
  GI50: 0.67 µM
  TGI: > 16.7 µM
COLO 205 colon
  GI50: > 16.7 µM
  TGI: > 16.7 µM
MDA-MB-435
  GI50: 0.466 µM
  TGI: > 16.7 µM
SW-620 colon
  GI50: 0.955 µM
  TGI: > 16.7 µM
SN12C renal
  GI50: 3.15 µM
  TGI: > 16.7 µM
SK-MEL-5 melanoma
  GI50: 0.858 µM
  TGI: 5.41 µM
A498 renal
  GI50: 0.574 µM
  TGI: 2.3 µM
SF-295 CNS
  GI50: 1.11 µM
  TGI: > 16.7 µM
UACC-257 melanoma
  GI50: 1.66 µM
  TGI: > 16.7 µM
MOLT-4 leukemia
  GI50: 3.73 µM
  TGI: > 16.7 µM
HCC-2998 colon
  GI50: 4.39 µM
  TGI: > 16.7 µM
BT-549 breast
  GI50: 0.885 µM
  TGI: > 16.7 µM
T-47D breast
  GI50: 4.3 µM
  TGI: > 16.7 µM
CCRF-CEM leukemia
  GI50: 4.47 µM
  TGI: > 16.7 µM
MDA-MB-231 breast
  GI50: 7.41 µM
  TGI: > 16.7 µM
SF-539 CNS
  GI50: 0.696 µM
  TGI: 8.94 µM
OVCAR-3 ovarian
  GI50: 0.719 µM
  TGI: > 16.7 µM
SF-268 CNS
  GI50: 1.31 µM
  TGI: > 16.7 µM
OVCAR-8 ovarian
  GI50: 3.83 µM
  TGI: > 16.7 µM
HT29 colon
  GI50: > 16.7 µM
  TGI: > 16.7 µM
M14 melanoma
  GI50: 0.648 µM
  TGI: > 16.7 µM
HCT-116 colon
  GI50: 0.882 µM
  TGI: > 16.7 µM
DU-145 prostate
  GI50: 5.61 µM
  TGI: > 16.7 µM
IGROV1 ovarian
  GI50: 1.11 µM
  TGI: > 16.7 µM
RXF 393 renal
  GI50: 0.437 µM
  TGI: 2.33 µM
LOX IMVI melanoma
  GI50: 1.14 µM
  TGI: > 16.7 µM
HL-60(TB) leukemia
  GI50: 0.662 µM
  TGI: 3.69 µM
HOP-92 NSCLC
  GI50: 2.3 µM
  TGI: 15.9 µM
UO-31 renal
  GI50: 0.853 µM
  TGI: > 16.7 µM
CAKI-1 renal
  GI50: 0.659 µM
  TGI: > 16.7 µM
MCF7 breast
  GI50: 0.637 µM
  TGI: > 16.7 µM
HCT-15 colon
  GI50: 0.756 µM
  TGI: > 16.7 µM
SK-MEL-2 melanoma
  GI50: 1.18 µM
  TGI: > 16.7 µM
PC-3 prostate
  GI50: 4.92 µM
  TGI: > 16.7 µM
A549 NSCLC
  GI50: 4.58 µM
  TGI: > 16.7 µM
SNB-19 CNS
  GI50: 0.949 µM
  TGI: > 16.7 µM
SNB-75 CNS
  GI50: 0.307 µM
  TGI: 1.2 µM
U251 CNS
  GI50: 1.06 µM
  TGI: > 16.7 µM
786-0 renal
  GI50: 6.06 µM
  TGI: > 16.7 µM
TK-10 renal
  GI50: > 16.7 µM
  TGI: > 16.7 µM
RPMI-8226 leukemia
  GI50: 0.737 µM
  TGI: 10.8 µM
ACHN renal
  GI50: 2.16 µM
  TGI: > 16.7 µM
SK-MEL-28 melanoma
  GI50: 4.22 µM
  TGI: > 16.7 µM
OVCAR-4 ovarian
  GI50: 4.4 µM
  TGI: > 16.7 µM
MALME-3M melanoma
  GI50: 4.09 µM
  TGI: > 16.7 µM
UACC-62 melanoma
  GI50: 0.88 µM
  TGI: > 16.7 µM
SR leukemia
  GI50: 0.462 µM
  TGI: > 16.7 µM
OVCAR-5 ovarian
  GI50: 9.42 µM
  TGI: > 16.7 µM
HS 578T breast
  GI50: 0.576 µM
  TGI: > 16.7 µM
